Data: publication PMC7523345 (Investigational new drugs, 2018)
Entries after “also recorded” stand apart in the source; their conditions may differ.

Assay: Phase I dose escalation study: safety, tolerability, DLT and MTD
Assay type: in vivo

Cc1cccc2c1NC(=O)[C@@H](NC(=O)[C@H](CCC(F)(F)F)[C@H](CCC(F)(F)F)C(N)=O)N=C2c1cccc(F)c1 [BMS-986115]
Diarrhoea (drug related AE, Grade 3 and 4) (Arm A QD 1.5 mg (N = 7)): 2 (29) n (%) | Diarrhoea (drug related AE, all grades) (Arm A QD 1.5 mg (N = 7)): 6 (86) n (%) | Dry mouth (drug related AE, all grades) (Arm A QD 1.5 mg (N = 7)): 0 n (%) | Dry skin (drug related AE, all grades) (Arm A QD 1.5 mg (N = 7)): 1 (14) n (%) | Dysgeusia (drug related AE, all grades) (Arm A QD 1.5 mg (N = 7)): 0 n (%) | Dyspepsia (drug related AE, all grades) (Arm A QD 1.5 mg (N = 7)): 0 n (%) | Dysphonia (drug related AE, all grades) (Arm A QD 1.5 mg (N = 7)): 1 (14) n (%) | Fatigue (drug related AE, Grade 3 and 4) (Arm A QD 1.5 mg (N = 7)): 1 (14) n (%) | Fatigue (drug related AE, all grades) (Arm A QD 1.5 mg (N = 7)): 4 (57) n (%) | Flatulence (drug related AE, all grades) (Arm A QD 1.5 mg (N = 7)): 0 n (%) | Hypocalcaemia (drug related AE, Grade 3 and 4) (Arm A QD 1.5 mg (N = 7)): 0 n (%) | Hypocalcaemia (drug related AE, all grades) (Arm A QD 1.5 mg (N = 7)): 1 (14) n (%) | Hypokalaemia (drug related AE, Grade 3 and 4) (Arm A QD 1.5 mg (N = 7)): 1 (14) n (%) | Hypokalaemia (drug related AE, all grades) (Arm A QD 1.5 mg (N = 7)): 2 (29) n (%) | Hyponatraemia (drug related AE, Grade 3 and 4) (Arm A QD 1.5 mg (N = 7)): 1 (14) n (%) | Hyponatraemia (drug related AE, all grades) (Arm A QD 1.5 mg (N = 7)): 1 (14) n (%) | Hypophosphataemia (drug related AE, Grade 3 and 4) (Arm A QD 1.5 mg (N = 7)): 2 (29) n (%) | Hypophosphataemia (drug related AE, all grades) (Arm A QD 1.5 mg (N = 7)): 4 (57) n (%) | Ileus (drug related AE, Grade 3 and 4) (Arm A QD 1.5 mg (N = 7)): 0 n (%) | Increased upper airway secretion (drug related AE, all grades) (Arm A QD 1.5 mg (N = 7)): 0 n (%) | Laryngeal pain (drug related AE, all grades) (Arm A QD 1.5 mg (N = 7)): 2 (29) n (%) | Leucocytosis (drug related AE, Grade 3 and 4) (Arm A QD 1.5 mg (N = 7)): 0 n (%) | Mouth ulceration (drug related AE, all grades) (Arm A QD 1.5 mg (N = 7)): 0 n (%) | Nausea (drug related AE, Grade 3 and 4) (Arm A QD 1.5 mg (N = 7)): 2 (29) n (%) | Nausea (drug related AE, all grades) (Arm A QD 1.5 mg (N = 7)): 5 (71) n (%) | Pruritus (drug related AE, Grade 3 and 4) (Arm A QD 1.5 mg (N = 7)): 0 n (%) | Pruritus (drug related AE, all grades) (Arm A QD 1.5 mg (N = 7)): 2 (29) n (%) | Pulmonary embolism (drug related AE, Grade 3 and 4) (Arm A QD 1.5 mg (N = 7)): 1 (14) n (%) | Rash (drug related AE, all grades) (Arm A QD 1.5 mg (N = 7)): 2 (29) n (%) | Rash maculopapular (drug related AE, all grades) (Arm A QD 1.5 mg (N = 7)): 0 n (%) | Sinusitis (drug related AE, all grades) (Arm A QD 1.5 mg (N = 7)): 0 n (%) | Urticaria (drug related AE, Grade 3 and 4) (Arm A QD 1.5 mg (N = 7)): 0 n (%) | Vision blurred (drug related AE, all grades) (Arm A QD 1.5 mg (N = 7)): 1 (14) n (%) | Vomiting (drug related AE, Grade 3 and 4) (Arm A QD 1.5 mg (N = 7)): 0 n (%) | Vomiting (drug related AE, all grades) (Arm A QD 1.5 mg (N = 7)): 4 (57) n (%) | Weight decreased (drug related AE, all grades) (Arm A QD 1.5 mg (N = 7)): 1 (14) n (%) | No. of patients with DLTs (Arm A QD 1.5 mg, 6 DLT evaluable patients): 1 | Description of DLT (Arm A QD 2.0 mg): Gr 3 ileus; Gr 3 nausea; Gr 3 pruritus/urticaria; also recorded: G3 ileus; also recorded: G3 nausea; also recorded: G3 pruritus/urticaria | Abdominal distension (drug related AE, all grades) (Arm A QD 2.0 mg (N = 7)): 0 n (%) | Abdominal pain (drug related AE, Grade 3 and 4) (Arm A QD 2.0 mg (N = 7)): 0 n (%) | Abdominal pain (drug related AE, all grades) (Arm A QD 2.0 mg (N = 7)): 1 (14) n (%) | Blood creatinine increased (drug related AE, all grades) (Arm A QD 2.0 mg (N = 7)): 1 (14) n (%) | Colitis (drug related AE, Grade 3 and 4) (Arm A QD 2.0 mg (N = 7)): 0 n (%) | Cough (drug related AE, Grade 3 and 4) (Arm A QD 2.0 mg (N = 7)): 1 (14) n (%) | Cough (drug related AE, all grades) (Arm A QD 2.0 mg (N = 7)): 1 (14) n (%) | Decreased Appetite (drug related AE, Grade 3 and 4) (Arm A QD 2.0 mg (N = 7)): 0 n (%) | Decreased Appetite (drug related AE, all grades) (Arm A QD 2.0 mg (N = 7)): 5 (71) n (%) | Dehydration (drug related AE, Grade 3 and 4) (Arm A QD 2.0 mg (N = 7)): 0 n (%) | Dehydration (drug related AE, all grades) (Arm A QD 2.0 mg (N = 7)): 1 (14) n (%) | Dermatitis acneiform (drug related AE, all grades) (Arm A QD 2.0 mg (N = 7)): 0 n (%) | Diarrhoea (drug related AE, Grade 3 and 4) (Arm A QD 2.0 mg (N = 7)): 1 (14) n (%) | Diarrhoea (drug related AE, all grades) (Arm A QD 2.0 mg (N = 7)): 5 (71) n (%) | Dry mouth (drug related AE, all grades) (Arm A QD 2.0 mg (N = 7)): 1 (14) n (%) | Dry skin (drug related AE, all grades) (Arm A QD 2.0 mg (N = 7)): 1 (14) n (%) | Dysgeusia (drug related AE, all grades) (Arm A QD 2.0 mg (N = 7)): 1 (14) n (%) | Dyspepsia (drug related AE, all grades) (Arm A QD 2.0 mg (N = 7)): 1 (14) n (%) | Dysphonia (drug related AE, all grades) (Arm A QD 2.0 mg (N = 7)): 3 (43) n (%) | Fatigue (drug related AE, Grade 3 and 4) (Arm A QD 2.0 mg (N = 7)): 0 n (%) | Fatigue (drug related AE, all grades) (Arm A QD 2.0 mg (N = 7)): 4 (57) n (%) | Flatulence (drug related AE, all grades) (Arm A QD 2.0 mg (N = 7)): 0 n (%) | Hypocalcaemia (drug related AE, Grade 3 and 4) (Arm A QD 2.0 mg (N = 7)): 0 n (%) | Hypocalcaemia (drug related AE, all grades) (Arm A QD 2.0 mg (N = 7)): 0 n (%) | Hypokalaemia (drug related AE, Grade 3 and 4) (Arm A QD 2.0 mg (N = 7)): 2 (29) n (%) | Hypokalaemia (drug related AE, all grades) (Arm A QD 2.0 mg (N = 7)): 2 (29) n (%) | Hyponatraemia (drug related AE, Grade 3 and 4) (Arm A QD 2.0 mg (N = 7)): 0 n (%) | Hyponatraemia (drug related AE, all grades) (Arm A QD 2.0 mg (N = 7)): 0 n (%) | Hypophosphataemia (drug related AE, Grade 3 and 4) (Arm A QD 2.0 mg (N = 7)): 3 (43) n (%) | Hypophosphataemia (drug related AE, all grades) (Arm A QD 2.0 mg (N = 7)): 3 (43) n (%) | Ileus (drug related AE, Grade 3 and 4) (Arm A QD 2.0 mg (N = 7)): 1 (14) n (%) | Increased upper airway secretion (drug related AE, all grades) (Arm A QD 2.0 mg (N = 7)): 0 n (%) | Laryngeal pain (drug related AE, all grades) (Arm A QD 2.0 mg (N = 7)): 0 n (%)
